In the NIST ThermoML archive (doi:10.1021/acs.jced.7b00159):

Conditions: Liquid, Pendant drop shape

CCCCCCCCCC [decane] + O=C=O
interfacial tension [mN/m]
Conditions | 323.15 K | 353.15 K
900 kPa | 18.82 | –
1200 kPa | – | 16.45
2100 kPa | 16.35 | 15.25
2990 kPa | 14.77 | –
3020 kPa | – | 14.07
4100 kPa | 12.56 | 12.52
5100 kPa | – | 11.28
6100 kPa | 8.43 | 9.86
7100 kPa | 6.85 | –
7110 kPa | – | 8.6
8100 kPa | 4.89 | 7.85
9100 kPa | – | 5.91
10100 kPa | – | 4.65

CCCCCCCCCCCC [dodecane] + O=C=O
interfacial tension [mN/m]
Conditions | 323.15 K | 353.15 K
1100 kPa | 19.27 | 16.94
2100 kPa | 17.29 | 16.02
3100 kPa | – | 14.66
3600 kPa | 14.47 | –
4100 kPa | 13.55 | 13.4
5100 kPa | – | 11.99
6100 kPa | 9.51 | 10.69
7100 kPa | 7.68 | 9.44
8100 kPa | 5.57 | 8.32
9100 kPa | – | 6.96
10100 kPa | – | 5.88
11100 kPa | – | 4.8

CCCCCCCCCCCCCCCCCCCC [eicosane] + O=C=O
353.15 K
Conditions | interfacial tension [mN/m]
1000 kPa | 20.35
2000 kPa | 18.99
4000 kPa | 16.13
6000 kPa | 13.37
8000 kPa | 10.34
10000 kPa | 7.85
12000 kPa | 5.55
14000 kPa | 3.71
16000 kPa | 2.38

CCCCCCCCCCCCCCCCC [heptadecane] + O=C=O
interfacial tension [mN/m]
Conditions | 323.15 K | 353.15 K
1100 kPa | – | 18.47
1200 kPa | 20.95 | –
2100 kPa | – | 17.15
2600 kPa | 18.3 | –
3300 kPa | 16.99 | 15.48
4100 kPa | 15.49 | 14.62
5100 kPa | 13.95 | –
5200 kPa | – | 13.38
6100 kPa | 11.78 | –
6720 kPa | – | 11.71
7100 kPa | – | 11.26
7300 kPa | 9.69 | –
8120 kPa | 8.52 | –
8150 kPa | – | 10.09
9300 kPa | – | 9.14
10100 kPa | 5.08 | –
10600 kPa | – | 7.78
12600 kPa | – | 5.78
14100 kPa | – | 4.3
15100 kPa | – | 3.57
16200 kPa | – | 2.81

CCCCCCCCCCCCCCCC [hexadecane] + O=C=O
Conditions | interfacial tension [mN/m]
323.15 K, 1030 kPa | 21.5
323.15 K, 2050 kPa | 19.61
323.15 K, 2960 kPa | 17.95
323.15 K, 4010 kPa | 15.94
323.15 K, 5020 kPa | 14.12
323.15 K, 5960 kPa | 12.43
323.15 K, 7000 kPa | 10.52
323.15 K, 8020 kPa | 8.71
323.15 K, 8960 kPa | 6.98
323.15 K, 9040 kPa | 7.5
323.15 K, 10020 kPa | 5.02
353.15 K, 1200 kPa | 18.68
353.15 K, 2100 kPa | 17.48
353.15 K, 3200 kPa | 16.05
353.15 K, 4040 kPa | 14.99
353.15 K, 5120 kPa | 13.67
353.15 K, 6110 kPa | 12.5
353.15 K, 7090 kPa | 11.37
353.15 K, 8090 kPa | 10.25
353.15 K, 8990 kPa | 9.28
353.15 K, 10050 kPa | 8.1
353.15 K, 11120 kPa | 7.11
353.15 K, 12010 kPa | 6.12

CCCCCCCCCCCCCCCCCCC [nonadecane] + O=C=O
interfacial tension [mN/m]
Conditions | 323.15 K | 353.15 K
1100 kPa | – | 19.52
2060 kPa | – | 18.23
2400 kPa | 20.57 | –
3100 kPa | – | 16.88
3200 kPa | 18.91 | –
4140 kPa | – | 15.58
4200 kPa | 17.25 | –
5050 kPa | 15.27 | –
5140 kPa | – | 14.35
6060 kPa | – | 13.27
6150 kPa | 12.93 | –
7100 kPa | 11.35 | –
7120 kPa | – | 12.06
8050 kPa | – | 11.03
8200 kPa | 9.61 | –
9200 kPa | 7.78 | 9.76
10000 kPa | 6.39 | –
10020 kPa | – | 8.94
11100 kPa | – | 7.87
12000 kPa | – | 7
13070 kPa | – | 5.97
14040 kPa | – | 5.08

CCCCCCCCCCCCCCCCCC [octadecane] + O=C=O
interfacial tension [mN/m]
Conditions | 323.15 K | 353.15 K
400 kPa | – | 20.05
410 kPa | 23.35 | –
1100 kPa | – | 19.16
1300 kPa | 21.23 | –
2000 kPa | 18.53 | –
2200 kPa | – | 17.73
2670 kPa | 17.13 | –
3200 kPa | 15.63 | –
3300 kPa | – | 16.22
4000 kPa | 14.12 | –
4180 kPa | – | 15.13
5100 kPa | 11.94 | –
5300 kPa | – | 13.86
6150 kPa | – | 12.92
6250 kPa | 9.84 | –
7000 kPa | 8.65 | –
7200 kPa | – | 11.8
8100 kPa | – | 10.68
8150 kPa | 5.07 | –
9100 kPa | 3.15 | –
9300 kPa | – | 9.66
10100 kPa | 1.83 | 8.87
11100 kPa | – | 7.66
12100 kPa | – | 6.63
13000 kPa | – | 5.74
14000 kPa | – | 4.91
15000 kPa | – | 4.05
16300 kPa | – | 3.08
17400 kPa | – | 2.49

CCCCCCCCCCCCCCC [pentadecane] + O=C=O
interfacial tension [mN/m]
Conditions | 323.15 K | 353.15 K
1050 kPa | 21.31 | –
1500 kPa | – | 18.19
2100 kPa | – | 17.27
2130 kPa | 19.32 | –
3100 kPa | 17.53 | 16.23
4050 kPa | 15.63 | –
4200 kPa | – | 14.66
5130 kPa | 13.49 | –
5400 kPa | – | 13.29
6100 kPa | 11.98 | 12.36
7100 kPa | 10.16 | –
7900 kPa | – | 10.2
8100 kPa | 8.46 | –
8900 kPa | – | 8.9
9000 kPa | 6.66 | –
9600 kPa | 5.32 | –
10000 kPa | – | 7.87
10100 kPa | 4.72 | –
11100 kPa | – | 6.78
12100 kPa | – | 5.82
13100 kPa | – | 4.66
14100 kPa | – | 3.75
15100 kPa | – | 3.06

CCCCCCCCCCCCCC [tetradecane] + O=C=O
interfacial tension [mN/m]
Conditions | 323.15 K | 353.15 K
1050 kPa | 20.79 | –
1200 kPa | – | 18.19
2100 kPa | – | 17.01
2110 kPa | 18.89 | –
3050 kPa | 17.05 | –
3200 kPa | – | 15.62
3950 kPa | 15.41 | –
4040 kPa | – | 14.48
5020 kPa | 13.51 | –
5120 kPa | – | 13.21
5960 kPa | 11.59 | –
6110 kPa | – | 12.2
7030 kPa | 9.79 | –
7090 kPa | – | 10.94
8000 kPa | 8.27 | –
8090 kPa | – | 9.9
8940 kPa | 6.5 | –
9020 kPa | 6.35 | –
10050 kPa | 3.98 | 7.61
11120 kPa | – | 6.5
12010 kPa | – | 5.5

CCCCCCCCCCCCC [tridecane] + O=C=O
interfacial tension [mN/m]
Conditions | 323.15 K | 353.15 K
1100 kPa | 20 | –
1500 kPa | – | 17.72
2100 kPa | 18.27 | –
2600 kPa | – | 16.09
4100 kPa | 14.42 | 14.09
5100 kPa | 12.93 | 12.85
6100 kPa | 11.47 | 12.02
7100 kPa | 9.42 | 10.41
8100 kPa | – | 9.58
8600 kPa | 6.83 | –
9100 kPa | – | 8.18
9600 kPa | 4.91 | –
10100 kPa | – | 7.07
10600 kPa | 2.83 | –
11100 kPa | – | 6.1
12100 kPa | – | 4.84
13100 kPa | – | 3.89
14100 kPa | – | 3.14
15100 kPa | – | 2.21
16100 kPa | – | 1.68
17100 kPa | – | 1.14

CCCCCCCCCCC [undecane] + O=C=O
interfacial tension [mN/m]
Conditions | 323.15 K | 353.15 K
1030 kPa | 19.26 | –
1100 kPa | – | 17.09
2100 kPa | 17.25 | 15.83
3100 kPa | 15.05 | 14.38
4100 kPa | 13.12 | 13.17
5100 kPa | 10.98 | 11.69
6100 kPa | 8.68 | 10.45
7100 kPa | 7.2 | 9.31
8100 kPa | 4.95 | 7.45
9100 kPa | – | 6.45
10100 kPa | – | 5.59
11100 kPa | – | 4.37
12100 kPa | – | 3.39
